The values that follow come from PMC6769516, “Apoptotic Effects of Drug Targeting Conjugates Containing Different GnRH Analogs on Colon Carcinoma Cells” (International Journal of Molecular Sciences, 2019).

This data set deals with HT-29 cell line. As to the kind of experiment: Cell viability assay, impedance-based xCELLigence SP System. Also noted: species or system human. The following applies: for IC50: Delta CI normalized to control, sigmoidal fit, mean ± SD of three parallel measurements, read-out: IC50 of cytotoxicity; for Viability (control = 100 %): conjugate at 10^-4 M, mean of three parallels ± SD. Here is the method:
The effects of different GnRH conjugates on HT-29 cell growth were measured by the xCELLigence SP System (ACEA Biosciences, San Diego, CA, USA), which allows cell viability to be detected in real-time via impedance readouts. The experimental setup and the procedure were almost identical to the one described in more detail in our previous works. The continuous monitoring of cell viability provides the opportunity to determine the difference in the time-dependent cellular response for the various GnRH conjugates and to select the optimal time points to conduct more specific end-point assays (e.g., apoptosis assays) for further investigating the mechanism of antitumor activity. […] CI is a dimensionless value and is calculated from the impedance of the well with cells and the background impedance of the well without cells.
Briefly, the main steps of the experiment are the following: (i) the background measurement, in which 80 µL complete cell culture medium was loaded to each well of an E-plate in order to establish a constant CI value; (ii) the cell monitoring step, in which 100 µL of cell suspension (10^5 cell/mL) was added to each well followed by an incubation period of 24 h; and (iii) the compound activity monitoring step, in which test-conjugates (final concentration range: 32 nM–100 µM) were added to the cells at the plateau phase and the CI change was recorded for a further 72 h at 10 kHz. Stock solutions (5 × 10^−3 M) were prepared from the test-conjugates in distilled water and then further diluted to 320 nM–1 mM in the complete cell culture medium. The wells treated with an adequate volume of pure cell culture medium represented the control. Triplicate wells were used for each treatment for statistical analysis.
Delta CI values—a difference of CI value at the time point of cell inoculation and CI value at a given time point—were calculated by RTCA 2.0 software (ACEA Biosciences, San Diego, CA, USA) integrated into the xCELLigence SP System to characterize the time-dependent antiproliferative/cytotoxic effect of the different GnRH conjugates. IC50 values were used to compare the effect of the conjugates.

Read-outs that look alike come from different tables or passages of the source. Non-standard residues stand in square brackets, D forms with d. Residues, ends and D or L forms follow the SMILES beside them. *: point of attachment. Daunorubicin(13-NOCH2CO) = COc1cccc2c1C(=O)c1c(O)c3c(c(O)c1C2=O)C[C@@](O)(C(C)=NOCC(=O)*)C[C@@H]3O[C@H]1C[C@H](N)[C@H](O)[C@H](C)O1; pGlu = O=C1CC[C@@H](C(=O)O)N1; Butyryl = CCCC(=O)*

One may read the IC50 as the concentration that gives 50% inhibition. For the molecule `CCCC(=O)NCCCC[C@H](NC(=O)[C@H](Cc1c[nH]c2ccccc12)NC(=O)[C@H](Cc1c[nH]cn1)NC(=O)[C@@H]1CCC(=O)N1)C(=O)N[C@@H](Cc1ccc(O)cc1)C(=O)N[C@H](CCCCNC(=O)CON=C(C)[C@]1(O)Cc2c(O)c3c(c(O)c2[C@@H](O[C@H]2C[C@H](N)[C@H](O)[C@H](C)O2)C1)C(=O)c1c(OC)cccc1C3=O)C(=O)N[C@@H](CC(C)C)C(=O)N[C@@H](CCCNC(=N)N)C(=O)N1CCC[C@H]1C(=O)NCC(N)=O` [I-[^4Lys(Bu),^6D-Lys(Dau)], GnRH-I-[^4Lys(Bu),^6D-Lys(Dau=Aoa)]] ([pGlu]HWK(Butyryl)Y[dK](Daunorubicin(13-NOCH2CO))LRPG-NH2), the IC50 was more than 100 µM (24 h incubation), 18.7 ± 1.19 µM (48 h incubation) and 16.2 ± 1.75 µM (72 h incubation). Besides, the “Viability (control = 100 %)” value by setting is: (24 h) 86.69 ± 4.84%; (48 h) 15.50 ± 0.55%; (72 h) 5.31 ± 1.27%.
As to `CCCC(=O)NCCCC[C@H](NC(=O)[C@H](Cc1c[nH]c2ccccc12)NC(=O)[C@H](Cc1c[nH]cn1)NC(=O)[C@@H]1CCC(=O)N1)C(=O)N[C@@H](Cc1c[nH]cn1)C(=O)N[C@H](CCCCNC(=O)CON=C(C)[C@]1(O)Cc2c(O)c3c(c(O)c2[C@@H](O[C@H]2C[C@H](N)[C@H](O)[C@H](C)O2)C1)C(=O)c1c(OC)cccc1C3=O)C(=O)N[C@@H](Cc1c[nH]c2ccccc12)C(=O)N[C@@H](Cc1ccc(O)cc1)C(=O)N1CCC[C@H]1C(=O)NCC(N)=O` [II-[^4Lys(Bu),^6D-Lys(Dau)], GnRH-II-[^4Lys(Bu),^6D-Lys(Dau=Aoa)]] ([pGlu]HWK(Butyryl)H[dK](Daunorubicin(13-NOCH2CO))WYPG-NH2), the concentration for half-maximal inhibition (IC50) is, setting by setting: (24 h incubation) 65.8 ± 3.89 µM; (48 h incubation) 69.7 ± 4.12 µM; (72 h incubation) 48.1 ± 6.89 µM. For the same molecule, the “Viability (control = 100 %)” value reads like this: (24 h) 35.64 ± 3.41%; (48 h) 19.40 ± 2.77%; (72 h) 24.31 ± 4.20%.
For `COc1cccc2c1C(=O)c1c(O)c3c(c(O)c1C2=O)C[C@@](O)(C(C)=NOCC(=O)NCCCC[C@@H](NC(=O)[C@H](Cc1c[nH]cn1)NC(=O)[C@H](CO)NC(=O)[C@H](Cc1c[nH]c2ccccc12)NC(=O)[C@H](Cc1c[nH]cn1)NC(=O)[C@@H]1CCC(=O)N1)C(=O)N[C@@H](Cc1c[nH]c2ccccc12)C(=O)N[C@@H](Cc1ccc(O)cc1)C(=O)N1CCC[C@H]1C(=O)NCC(N)=O)C[C@@H]3O[C@H]1C[C@H](N)[C@H](O)[C@H](C)O1` [II-[^4Ser,^6D-Lys(Dau)], GnRH-II-[^4Ser,^6D-Lys(Dau=Aoa)]] ([pGlu]HWSH[dK](Daunorubicin(13-NOCH2CO))WYPG-NH2), the 50% inhibitory concentration (IC50) (24 h incubation) was 58.9 ± 10 µM, the IC50 (48 h incubation) was determined as 24.2 ± 0.86 µM and the IC50 (72 h incubation) turned out to be 19.7 ± 2.51 µM. Besides, the “Viability (control = 100 %)” value was 16.91 ±1.91% (48 h) and 20.43 ± 2.66% (72 h).
As for `COc1cccc2c1C(=O)c1c(O)c3c(c(O)c1C2=O)C[C@@](O)(C(C)=NOCC(=O)NCCCC[C@@H](NC(=O)[C@H](Cc1ccc(O)cc1)NC(=O)[C@H](CO)NC(=O)[C@H](Cc1c[nH]c2ccccc12)NC(=O)[C@H](Cc1c[nH]cn1)NC(=O)[C@@H]1CCC(=O)N1)C(=O)N[C@@H](CC(C)C)C(=O)N[C@@H](CCCNC(=N)N)C(=O)N1CCC[C@H]1C(=O)NCC(N)=O)C[C@@H]3O[C@H]1C[C@H](N)[C@H](O)[C@H](C)O1` [I-[^4Ser,^6D-Lys(Dau)], GnRH-I-[^4Ser,^6D-Lys(Dau=Aoa)]], the 50% inhibitory concentration (IC50) (24 h incubation) is more than 100 µM, the IC50 (48 h incubation) amounted to 60.2 ± 3.5 µM and the half-maximal inhibitory concentration (IC50) (72 h incubation) stood at 21.9 ± 1.54 µM. Also, under “48 h”, the “Viability (control = 100 %)” value was 43.82 ± 1.18%.
